Results reported in patent US7868026B2, “Therapeutic compounds” (Pfizer Inc., priority 2005, dated 2011).
Read-outs that look alike come from different tables or passages of the source.

Key:
CYP3A4 [1] = molecular target: T1, CYP3A4 (Homo sapiens, UniProt P08684); assay: Determination of compound Kiapp against recombinant CYP3A4 enzyme (BFC fluorescent substrate); type: biochemical
Method: 1. Determination of compound Kiapp
A determination of the Kiapp of the compounds of the invention against recombinant CYP3A4 enzyme was performed as follows. The assay was performed in a 100 mM sodium phosphate buffer pH 7.0, 5 mM TCEP and containing 2% dimethylformamide (final concentration) upon addition of substrate and inhibitor. A typical reaction for the determination of Kiapp values was carried at room temperature in a solid black Costar u-bottom 96-well polypropylene plate. In each well, recombinant CYP3A4 enzyme (5.5 nM or 8 nM, final concentration depending on the commercial source of the enzyme) was pre-incubated in the presence of the inhibitor for at least 30 minutes in the assay buffer. When pre-incubation was completed (˜30 min), the reaction was initiated by adding NADPH (200 uM, final concentration), and 7-benzyloxy-4-(trifluoromethyl)-coumarin (BFC) (5 uM, final concentration). The oxidation of the coumarin substrate was recorded by a 96-well plate reader POLARstar (BMG LABTECH, Offenburg, Germany).
The initial reaction velocities were measured during the first 5 min of the reaction when the release of the fluorescent product is linear with time, in the absence and in the presence of various concentrations of inhibitors. For non-partial & partial inhibitors, the Kiapp values were determined by using the equation for tight-binding inhibitor developed by Morrison, J F (Morrison J F. Biochim Biophys Acta. 1969, 185: 269-86) and by Szedlaseck S E et al. (Szedlascek, S. E., Ostafe, V., Serban, M., and Vlad, M.O. Biochem. J. 1988, 254:311-312), respectively.
The fluorescent substrate BFC was purchased from Sigma (St Louis, Mo.). Two commercial sources of recombinant enzymes were used in this study: recombinant CYP3A4−b5 enzyme (Baculosomes®) was purchased from Invitrogen (Carlsbad, Calif.) and the recombinant CYP3A4+b5 enzyme (Supersomes®) was purchased from BD Biosciences (Woburn, Mass.).

CYP3A4 [2] = molecular target: T1, CYP3A4; assay: Determination of IC50 against CYP3A4 by measurement of inhibition of midazolam metabolism (human liver microsomes, 1-hydroxymidazolam by LC-MS/MS); type: biochemical; parameters: 0.1 mg/mL human liver microsomes; details: 2 μM midazolam, 0.1 mg/mL human liver microsomes
Method: 3. Determination of IC50 Against CYP3A4 by Measurement of Inhibition of Midazolam Metabolism
This assay was performed using a standard 96 well plate design. […] The incubation substrate mix contains 2 μM midazolam, 0.1 mg/mL human liver microsomes, 1 mM NADPH, and potassium phosphate buffer (100 mM, pH 7.4). Quantitation of metabolite peak area ratio against internal standard is determined by LC-MS/MS analysis. The production of 1-hydroxymidazolam from midazolam metabolism is determined after incubation for eight minutes by comparison to a standard curve generated for the metabolite.
Samples were analyzed in the MRM mode using a Sciex API 3000 mass spectrometer (Applied Biosystems, Foster City, Calif.) with a Paradigm MS4 binary pump (Michrom BioResources Inc., Auburn, Calif.) and a LEAP CTC PAL autosampler (LEAP Technologies, Carrboro, N.C.). A Phenomenex Synergi, 4μ, Polar-RP, 10×2.0 mm column (Phenomenex, Torrance, Calif.) was used for separation with a mobile phase composition of: 0.1% formic acid in water (A) and: 0.1% formic acid in methanol (B). The following gradient was used: […]
The sample injection volume was 10 μL and flow was split post-column with 0.4 mL/min going to the mass spectrometer. Analysis was performed using the following API 3000 mass spectrometer settings: […]

[3] = Baculo. enzyme preparation, read-out: Kiapp (BFC, Baculo.)
[4] = Super. enzyme preparation, read-out: Kiapp (BFC, Super.)

T1 sequence (P08684 whole entry): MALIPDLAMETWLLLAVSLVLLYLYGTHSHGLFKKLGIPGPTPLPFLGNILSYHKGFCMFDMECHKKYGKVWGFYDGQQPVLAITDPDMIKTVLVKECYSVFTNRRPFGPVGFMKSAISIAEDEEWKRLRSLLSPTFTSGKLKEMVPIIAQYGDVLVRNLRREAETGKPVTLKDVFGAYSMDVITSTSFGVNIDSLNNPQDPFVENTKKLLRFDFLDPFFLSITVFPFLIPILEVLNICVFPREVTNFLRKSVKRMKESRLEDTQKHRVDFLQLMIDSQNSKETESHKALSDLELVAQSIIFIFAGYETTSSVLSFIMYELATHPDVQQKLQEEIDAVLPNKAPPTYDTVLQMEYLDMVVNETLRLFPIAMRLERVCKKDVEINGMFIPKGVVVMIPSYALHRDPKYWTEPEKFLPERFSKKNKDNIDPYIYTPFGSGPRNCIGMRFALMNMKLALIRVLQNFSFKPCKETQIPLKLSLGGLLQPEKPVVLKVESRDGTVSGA

| SMILES | Ki (CYP3A4 [1]; [3]) [nM] | Ki (CYP3A4 [1]; [4]) [nM] | IC50 (CYP3A4 [2]) [nM] |
| --- | --- | --- | --- |
| COCCN(C(=O)c1ccccc1S(=O)(=O)Nc1cnccc1OC)C(C)C [Example 127, N-isopropyl-N-(2-methoxyethyl)-2-{[(4-methoxypyridin-3-yl)amino]sulfonyl}benzamide] | 694 | 282 | 107 |
| COc1cncc(NS(=O)(=O)c2ccccc2C(=O)NCc2c(Cl)cccc2Cl)c1 [Example 133, N-(2,6-dichlorobenzyl)-2-{[(5-methoxypyridin-3-yl)amino]sulfonyl}benzamide] | 67.8 | 11.6 | 18 |
| Cc1cncc(NS(=O)(=O)c2ccccc2C(=O)N(C)Cc2ccc(F)cc2)c1 [Example 146, N-(4-fluorobenzyl)-N-methyl-2-{[(5-methylpyridin-3-yl)amino]sulfonyl}benzamide] | 54.6 | 8.6 | 11 |
| COc1cncc(NS(=O)(=O)c2ccc(OC)cc2C(=O)NCc2ccc(F)cc2)c1 [Example 111, N-(4-fluorobenzyl)-5-methoxy-2-{[(5-methoxypyridin-3-yl)amino]sulfonyl}benzamide] | 27.3 | 6.8 | 10 |
| COc1ccncc1NS(=O)(=O)c1ccccc1C(=O)N(C)Cc1ccccc1F [Example 125, N-(2-fluorobenzyl)-2-{[(4-methoxypyridin-3-yl)amino]sulfonyl}-N-methylbenzamide] | 185 | 31.2 | 20 |
| CN(c1cccnc1)S(=O)(=O)c1ccccc1C(=O)NCc1ccc(F)c(F)c1 [Example 327, N-(3,4-difluorobenzyl)-2-{[methyl(pyridin-3-yl)amino]sulfonyl}benzamide] | 86.4 | 19.8 | – |
| CCC(C)(C)NC(=O)c1ccccc1S(=O)(=O)Nc1cnccc1OC [Example 106, N-(1,1-dimethylpropyl)-2-{[(4-methoxypyridin-3-yl)amino]sulfonyl}benzamide] | 345 | 87.5 | 51 |
| CC[C@@H](C)NC(=O)c1ccccc1S(=O)(=O)Nc1cncc(OC)c1 [Example 101, 2-{[(5-methoxypyridin-3-yl)amino]sulfonyl}-N-[(1R) -1-methylpropyl]benzamide] | 244 | 54.8 | 26 |
| Cc1cncc(NS(=O)(=O)c2ccccc2C(=O)N(C)Cc2ccccc2F)c1 [Example 129, N-(2-fluorobenzyl)-N-methyl-2-{[(5-methylpyridin-3-yl)amino]sulfonyl}benzamide] | 87.6 | 9.6 | 12 |
| COCCN(C(=O)c1ccccc1S(=O)(=O)Nc1cccnc1)C(C)C [Example 128, N-isopropyl-N-(2-methoxyethyl)-2-[(pyridin-3-ylamino)sulfonyl]benzamide] | 448 | 54.9 | 67 |
| Cc1cncc(NS(=O)(=O)c2ccccc2C(=O)NCc2ccc3c(c2)CCO3)c1 [Example 94, N-(2,3-dihydro-1-benzofuran-5-ylmethyl)-2-{[(5-methylpyridin-3-yl)amino]sulfonyl}benzamide] | 182 | 25.7 | 16 |
| COc1ccncc1NS(=O)(=O)c1ccccc1C(=O)N(C)Cc1ccc(F)cc1 [Example 143, N-(4-fluorobenzyl)-2-{[(4-methoxypyridin-3-yl)amino]sulfonyl}-N-methylbenzamide] | 169 | 29 | 58 |
| CCOc1ccncc1NS(=O)(=O)c1ccccc1C(=O)N(C)Cc1ccc(F)cc1 [Example 142, 2-{[(4-ethoxypyridin-3-yl)amino]sulfonyl}-N-(4-fluorobenzyl)-N-methylbenzamide] | 111 | 11.8 | 26 |
| O=C(NCc1ccc(F)c(F)c1)c1ccccc1S(=O)(=O)Nc1cncc(OCc2ccccc2)c1 [Example 393, 2-({[5-(benzyloxy)pyridin-3-yl]amino}sulfonyl)-N-(3,4-diflorobenzyl)benzamide] | – | – | 8 |
